Test system: BV2-CD33^WT cells
Experiment: Aβ42 uptake in microglial BV2-CD33^WT cells (Aβ42-specific ELISA of cell lysates)
Type: cell-based
Settings: 100 μM; BV2-CD33 activated microglial cells; 3 hours pre-treatment, then 2 hours with Aβ42 peptide; vs DMSO control; FIG. 2
Description: FIG. 2 is a plot showing Aβ42 uptake in microglial BV2-CD33^WT cells treated with DMSO as control or cromolyn derivatives (C1, C3-8) at different concentrations for 3 hours. Afterwards, cells were incubated with DMSO or cromolyn derivatives in the presence of the Aβ42 peptide for additional 2 hours. Cell lysates were analyzed for intracellular levels of Aβ42 using an Aβ42-specific ELISA kit.

SMILES: CC(=O)OCc1cc(=O)c2c(OCC(COc3cccc4oc(COC(C)=O)cc(=O)c34)OC(C)=O)cccc2o1 [Compound C7, Ac-Triol- Cromolyn]
- microglial uptake of Aβ42: positive impact
